Laboratory results as given in the supplement of paper PMC11061612.

Tests used:
Assay in all cases: Bliss excess, mean over the matrix (fraction); higher = more synergy
786-0 (Kidney Carcinoma) = test system: 786-0 (Kidney Carcinoma)
Procedure, shortened: (§1)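 Bliss excess equals the observed combination effect minus the expected value EA + EB − EA·EB, where EA and EB are the effects of each agent alone. Combination Emax is the second-highest inhibition within the matrix. Inhibition was scaled from CellTiter-Glo 2.0 luminescence, with 0 set by vehicle wells and 1 by blank wells, after 72 hours of two-drug dosing of cells plated in 1536-well plates.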

[1] = test system: AsPC-1 (Pancreatic Carcinoma)
Procedure, shortened: as §1

[2] = test system: CML-T1 (Chronic Myelogenous Leukemia)
Procedure, shortened: as §1

[3] = test system: Calu-6 (Non-Small Cell Lung Carcinoma)
Procedure, shortened: as §1

[4] = test system: EB-3 (Burkitt's Lymphoma)
Procedure, shortened: as §1

ES-2 (Ovarian Carcinoma) = test system: ES-2 (Ovarian Carcinoma)
Procedure, shortened: as §1

[5] = test system: FLO-1 (Esophageal Adenocarcinoma)
Procedure, shortened: as §1

[6] = test system: HSC-3 (Oral Cavity Carcinoma)
Procedure, shortened: as §1

HuO-3N1 (Osteosarcoma) = test system: HuO-3N1 (Osteosarcoma)
Procedure, shortened: as §1

[7] = test system: JHH-1 (Hepatocellular Carcinoma)
Procedure, shortened: as §1

[8] = test system: LAMA-84 (Chronic Myelogenous Leukemia)
Procedure, shortened: as §1

[9] = test system: NCI-H1155 (Non-Small Cell Lung Carcinoma)
Procedure, shortened: as §1

[10] = test system: NCI-H1623 (Lung Adenocarcinoma)
Procedure, shortened: as §1

[11] = test system: NKM-1 (Acute Myeloid Leukemia)
Procedure, shortened: as §1

[12] = test system: OCI-AML5 (Acute Myeloid Leukemia)
Procedure, shortened: as §1

[13] = test system: OV-90 (Ovarian Carcinoma)
Procedure, shortened: as §1

[14] = test system: PANC-02-03 (Pancreatic Carcinoma)
Procedure, shortened: as §1

[15] = test system: RPMI-8866 (Chronic Myelogenous Leukemia)
Procedure, shortened: as §1

[16] = test system: SNU-175 (Colorectal Carcinoma)
Procedure, shortened: as §1

[17] = test system: SW684 (Other Solid Carcinomas)
Procedure, shortened: as §1

SMILES	Bliss excess (786-0 (Kidney Carcinoma))	Bliss excess [1]	Bliss excess [2]	Bliss excess [3]	Bliss excess [4]	Bliss excess (ES-2 (Ovarian Carcinoma))	Bliss excess [5]	Bliss excess [6]	Bliss excess (HuO-3N1 (Osteosarcoma))	Bliss excess [7]	Bliss excess [8]	Bliss excess [9]	Bliss excess [10]	Bliss excess [11]	Bliss excess [12]	Bliss excess [13]	Bliss excess [14]	Bliss excess [15]	Bliss excess [16]	Bliss excess [17]
CCN(CCO)CCCOc1ccc2c(Nc3cc(CC(=O)Nc4cccc(F)c4)[nH]n3)ncnc2c1 [AZD2811] + O=C(c1cc(Cc2n[nH]c(=O)c3ccccc23)ccc1F)N1CCN(C(=O)C2CC2)CC1 [Olaparib] (first compound max 1 µM, 7x7, partner max 10 µM)	-0.0274	-0.0273	0.029	0.0004	-0.0307	-0.0182	-0.0153	0.0273	-0.0185	0.0078	0.0269	0.0393	-0.0526	0.0342	-0.0224	-0.0026	0.0133	0.147	-0.0141	-0.0219
Cc1c2c(nn1C)CSCc1cc(n(C)n1)CSc1cc(c3ccccc3c1)OCCCc1c(C(=O)O)n(C)c3c-2c(Cl)ccc13 [AZD5991] + C[C@@H](Nc1cc(F)cc(F)c1)c1cc(C(=O)N(C)C)cc2c(=O)cc(N3CCOCC3)oc12 [AZD8186] (first compound max 1 µM, 7x7, partner max 3 µM)	0.0005	-0.0414	-0.0081	-0.0018	-0.0275	-0.0108	-0.0486	-0.001	0.0324	0.0056	-0.0037	-0.0105	-0.0133	-0.0247	-0.0146	-0.0496	-0.0327	-0.041	0.0048	-0.0553
CN(CCO)CC[C@H](CSc1ccccc1)Nc1ccc(S(=O)(=O)NC(=O)c2ccc(N3CCC([C@@H](O)c4ccccc4-c4ccc(Cl)cc4)CC3)cc2)cc1S(=O)(=O)C(F)(F)F [AZD4320] + CCN(CCO)CCCOc1ccc2c(Nc3cc(CC(=O)Nc4cccc(F)c4)[nH]n3)ncnc2c1 [AZD2811] (first compound max 1 µM, 7x7, partner max 1 µM)	-0.0374	-0.0294	0.0624	-0.0023	-0.0065	-0.0208	0.0895	0.0257	-0.0051	0.0925	0.0319	0.127	-0.0045	0.0403	-0.004	0.0409	-0.0246	0.234	0.0362	-0.0717
CC1(C)CCC(CN2CCN(c3ccc(C(=O)NS(=O)(=O)c4ccc(NCC5CCOCC5)c([N+](=O)[O-])c4)c(Oc4cnc5[nH]ccc5c4)c3)CC2)=C(c2ccc(Cl)cc2)C1 [Venetoclax] + C1CN(CCC1(C(=O)N[C@@H](CCO)C2=CC=C(C=C2)Cl)N)C3=NC=NC4=C3C=CN4 [Capivasertib] (first compound max 1 µM, 7x7, partner max 3 µM)	-0.0428	-0.088	-0.0342	-0.0558	-0.0683	-0.0389	-0.0841	-0.0501	-0.0347	-0.0721	-0.0498	-0.0482	-0.0643	0.0228	-0.0057	-0.0796	-0.0742	-0.0224	-0.06	-0.0688
CC1(C)CCC(CN2CCN(c3ccc(C(=O)NS(=O)(=O)c4ccc(NCC5CCOCC5)c([N+](=O)[O-])c4)c(Oc4cnc5[nH]ccc5c4)c3)CC2)=C(c2ccc(Cl)cc2)C1 [Venetoclax] + C[C@@H]1COCCN1C2=NC(=NC(=C2)C3(CC3)[S@](=N)(=O)C)C4=C5C=CNC5=NC=C4 [AZD6738] (first compound max 1 µM, 7x7, partner max 10 µM)	-0.0882	-0.0301	0.0145	-0.0261	-0.0047	-0.0372	-0.0338	-0.0022	-0.0375	-0.0365	-0.0263	0.0582	0.0068	-0.0143	0.0391	0.0022	-0.0199	0.0052	-0.0392	-0.0138
COc1cccc2c1C(=O)c1c(O)c3c(c(O)c1C2=O)C[C@@](O)(C(=O)CO)C[C@@H]3O[C@H]1C[C@H](N)[C@H](O)[C@H](C)O1 [Doxorubicin] + Cc1cc2ncnn2cc1Nc1ncc2c(n1)n(C1CCOCC1)c(=O)n2C [AZD7648] (first compound max 1 µM, 7x7, partner max 10 µM)	0.082	-0.033	0.0824	0.0914	-0.0391	0.076	0.027	0.0907	-0.0523	-0.0314	0.121	0.138	0.0258	0.0803	0.174	0.0011	0.0001	0.193	0.0265	-0.0211
